Measured values from patent US20150133426A1, “SUBSTITUTED PYRROLOPYRIMIDINES” (BAYER PHARMA AKTIENGESELLSCHAFT, priority 2012, published 2015).

Target: T1, human full-length MKNK1 (Homo sapiens, UniProt Q9BUB5, T385D)
T1 construct: purchased Carna Biosciences 02-145; host or cells: insect cells, baculovirus expression system
Experiment: MKNK1 kinase high ATP assay (TR-FRET)
Type: biochemical
Settings: high ATP (2 mM), 15 min preincubation with enzyme, GST-MKNK1 (T344D)
Procedure, shortened: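 GST-tagged full-length human MKNK1 (aa 1-424, T344D), baculovirus-expressed, preincubated 15 min with compound, then reacted 30 min at 22 °C with 2 mM ATP and 0.06 µM biotinylated peptide (final).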

T1 sequence (Q9BUB5 1-424 isoform Q9BUB5-2 T344D): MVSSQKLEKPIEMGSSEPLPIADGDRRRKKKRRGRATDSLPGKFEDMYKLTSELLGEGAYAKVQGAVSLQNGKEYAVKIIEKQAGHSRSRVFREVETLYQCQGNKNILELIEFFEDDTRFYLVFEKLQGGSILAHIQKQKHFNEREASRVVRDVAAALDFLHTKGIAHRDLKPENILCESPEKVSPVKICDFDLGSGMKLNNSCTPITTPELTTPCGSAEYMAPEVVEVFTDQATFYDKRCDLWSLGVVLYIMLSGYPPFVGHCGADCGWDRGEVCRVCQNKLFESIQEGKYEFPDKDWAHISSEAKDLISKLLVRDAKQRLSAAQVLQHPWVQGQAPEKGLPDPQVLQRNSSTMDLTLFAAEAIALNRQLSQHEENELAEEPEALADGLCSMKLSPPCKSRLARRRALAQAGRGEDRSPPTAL

| SMILES | IC50 [nM] |
| --- | --- |
| CC(=O)c1ccc(Nc2ncnc3[nH]c4c(c23)CC(C(=O)NCCCS(C)(=O)=O)CC4)cc1 (racemic) [Example 53, (RS)-4-[(4-Acetylphenyl)amino]-N-[3-(methylsulfonyl)propyl]-6,7,8,9-tetrahydro-5H-pyrimido[4,5-b]indole-6-carboxamide] | 335 |
| [O-][S+]1CCc2[nH]c3ncnc(Nc4ccc5[nH]ncc5c4)c3c2C1 (racemic) [Example 85, (RS)—N-(1H-Indazol-5-yl)-5,7,8,9-tetrahydrothiopyrano[3′,4′:4,5]pyrrolo[2,3-d]pyrimidin-4-amine 6-oxide] | 192 |
| CC(C)NC(=O)C1CCc2[nH]c3ncnc(N4CCc5ccccc54)c3c2C1 (racemic) [Example 208, (RS)-4-(2,3-Dihydro-1H-indol-1-yl)-N-(propan-2-yl)-6,7,8,9-tetrahydro-5H-pyrimido[4,5-b]indole-6-carboxamide] | 2750 |
| O=C(O)C1CCc2[nH]c3ncnc(Nc4ccc(F)cc4OCCO)c3c2C1 (racemic) [Example 182, (RS)-4-{[4-Fluoro-2-(2-hydroxyethoxy)phenyl]amino}-6,7,8,9-tetrahydro-5H-pyrimido[4,5-b]indole-6-carboxylic acid] | 251 |
| COc1cc2[nH]ncc2cc1Nc1ncnc2[nH]c3c(c12)CC(C(=O)NCc1ccccc1)CC3 (racemic) [Example 219, (RS)—N-Benzyl-4-[(6-methoxy-1H-indazol-5-yl)amino]-6,7,8,9-tetrahydro-5H-pyrimido[4,5-b]indole-6-carboxamide] | 1 |
| O=C(NC1CC1)C1CCc2[nH]c3ncnc(Nc4ccccc4OC4CCCC4)c3c2C1 (racemic) [Example 191, (RS)-4-{[2-(Cyclopentyloxy)phenyl]amino}-N-cyclopropyl-6,7,8,9-tetrahydro-5H-pyrimido[4,5-b]indole-6-carboxamide] | 171 |
| CNC(=O)C1CCc2[nH]c3ncnc(Nc4cc5cn[nH]c5cc4OC)c3c2C1 (racemic) [Example 217, (RS)-4-[(6-Methoxy-1H-indazol-5-yl)amino]-N-methyl-6,7,8,9-tetrahydro-5H-pyrimido[4,5-b]indole-6-carboxamide] | 10 |
| COc1ccc(Cl)cc1Nc1ncnc2[nH]c3c(c12)CC(F)(F)CC3 [Example 144] | ≥ 20000 |
| COc1cc(NS(C)(=O)=O)ccc1Nc1ncnc2[nH]c3c(c12)CCCC3 [Example 129] | 4050 |
| COc1cc(Cl)c(C)cc1Nc1ncnc2[nH]c3c(c12)CC(C(=O)NCCCS(C)(=O)=O)CC3 (racemic) [Example 162, (RS)-4-[(4-Chloro-2-methoxy-5-methylphenyl)amino]-N-[3-(methylsulfonyl)propyl]-6,7,8,9-tetrahydro-5H-pyrimido[4,5-b]indole-6-carboxamide] | 120 |
| COc1ccc(F)cc1Nc1ncnc2[nH]c3c(c12)CC(C(=O)N1CCN(C)CC1)CC3 (racemic) [Example 196, (RS)-{4-[(5-Fluoro-2-methoxyphenyl)amino]-6,7,8,9-tetrahydro-5H-pyrimido[4,5-b]indol-6-yl}(4-methylpiperazin-1-yl)methanone] | 115 |
| CC(C)NC(=O)C1CCc2[nH]c3ncnc(Nc4cc(Cl)ccc4OC(C)C)c3c2C1 (racemic) [Example 225, (RS)-4-{[5-Chloro-2-(propan-2-yloxy)phenyl]amino}-N-(propan-2-yl)-6,7,8,9-tetrahydro-5H-pyrimido[4,5-b]indole-6-carboxamide] | 1040 |
| CS(=O)(=O)CCCNC(=O)C1CCc2[nH]c3ncnc(Nc4cccc(-c5cnco5)c4)c3c2C1 (racemic) [Example 55, (RS)—N-[3-(Methylsulfonyl)propyl]-4-{[3-(1,3-oxazol-5-yl)phenyl]amino}-6,7,8,9-tetrahydro-5H-pyrimido[4,5-b]indole-6-carboxamide] | 511 |
| CS(=O)(=O)CCCNC(=O)C1CCc2[nH]c3ncnc(Nc4ccccc4OC4CCOC4)c3c2C1 (racemic) [Example 167, (RS)—N-[3-(Methylsulfonyl)propyl]-4-{[2-(tetrahydrofuran-3-yloxy)phenyl]amino}-6,7,8,9-tetrahydro-5H-pyrimido[4,5-b]indole-6-carboxamide] | 70 |
| CN1CCN(C(=O)C2CCc3[nH]c4ncnc(N5CCc6ccccc65)c4c3C2)CC1 (racemic) [Example 211, (RS)-[4-(2,3-Dihydro-1H-indol-1-yl)-6,7,8,9-tetrahydro-5H-pyrimido[4,5-b]indol-6-yl](4-methylpiperazin-1-yl)methanone] | 3410 |
| COc1ccc(C(F)(F)F)cc1Nc1ncnc2[nH]c3c(c12)CC(C(=O)N1CCN(C)CC1)CC3 (racemic) [Example 215, (RS)-(4-{[2-Methoxy-5-(trifluoromethyl)phenyl]amino}-6,7,8,9-tetrahydro-5H-pyrimido[4,5-b]indol-6-yl)(4-methylpiperazin-1-yl)methanone] | 93 |
| COc1cc(Cl)c(Cl)cc1Nc1ncnc2[nH]c3c(c12)CC(C(=O)NC(C)C)CC3 (racemic) [Example 226, (RS)-4-[(4,5-Dichloro-2-methoxyphenyl)amino]-N-(propan-2-yl)-6,7,8,9-tetrahydro-5H-pyrimido[4,5-b]indole-6-carboxamide] | 19 |
| CC(C)NC(=O)C1CCc2[nH]c3ncnc(Nc4ccc(F)cc4OC(C)C)c3c2C1 (racemic) [Example 223, (RS)-4-{[4-Fluoro-2-(propan-2-yloxy)phenyl]amino}-N-(propan-2-yl)-6,7,8,9-tetrahydro-5H-pyrimido[4,5-b]indole-6-carboxamide] | 53 |

| SMILES | IC50 [nM] |
| --- | --- |
| CC(C)Oc1cc2[nH]ncc2cc1Nc1ncnc2[nH]c3c(c12)CC(F)(F)CC3 [Example 232, 6,6-Difluoro-N-[6-(propan-2-yloxy)-1H-indazol-5-yl]-6,7,8,9-tetrahydro-5H-pyrimido[4,5-b]indol-4-amine] | 5 |
| COc1ccc(F)cc1Nc1ncnc2[nH]c3c(c12)CC(C(=O)NC(C)C)CC3 (racemic) [Example 195, (RS)-4-[(5-Fluoro-2-methoxyphenyl)amino]-N-(propan-2-yl)-6,7,8,9-tetrahydro-5H-pyrimido[4,5-b]indole-6-carboxamide] | 123 |
| CC(C)Oc1cc(F)ccc1Nc1ncnc2[nH]c3c(c12)CN(Cc1ccccc1)CC3 [Example 8, 6-Benzyl-N-(4-fluoro-2-isopropoxyphenyl)-6,7,8,9-tetrahydro-5H-pyrido[3′,4′:4,5]pyrrolo[2,3-d]pyrimidin-4-amine] | 2940 |
| CS(=O)(=O)CCCNC(=O)C1CCc2[nH]c3ncnc(Nc4ccc5[nH]c(=S)sc5c4)c3c2C1 (racemic) [Example 155, (RS)—N-[3-(Methylsulfonyl)propyl]-4-[(2-thioxo-2,3-dihydro-1,3-benzothiazol-6-yl)amino]-6,7,8,9-tetrahydro-5H-pyrimido[4,5-b]indole-6-carboxamide] | 504 |
| COc1cc2[nH]ncc2cc1Nc1ncnc2[nH]c3c(c12)CC(C(=O)NCCCS(C)(=O)=O)CC3 (racemic) [Example 163, (RS)-4-[(6-Methoxy-1H-indazol-5-yl)amino]-N-[3-(methylsulfonyl)propyl]-6,7,8,9-tetrahydro-5H-pyrimido[4,5-b]indole-6-carboxamide] | 4 |
| CCOC(=O)C1CCc2[nH]c3ncnc(Nc4ccc(Cl)c(Cl)c4)c3c2C1 (racemic) [Example 178, (RS)-Ethyl 4-[(3,4-dichlorophenyl)amino]-6,7,8,9-tetrahydro-5H-pyrimido[4,5-b]indole-6-carboxylate] | 215 |
| COc1ccc(F)cc1Nc1ncnc2[nH]c3c(c12)CC(C(=O)NC1CC1)CC3 (racemic) [Example 197, (RS)—N-Cyclopropyl-4-[(5-fluoro-2-methoxyphenyl)amino]-6,7,8,9-tetrahydro-5H-pyrimido[4,5-b]indole-6-carboxamide] | 188 |
| c1ccc2c(c1)CCN2c1ncnc2[nH]c3c(c12)CCCC3 [Example 120] | 8350 |
| CS(=O)(=O)CCCNC(=O)C1CCc2[nH]c3ncnc(Nc4cccc5c4CCCC5)c3c2C1 (racemic) [Example 58, (RS)—N-[3-(Methylsulfonyl)propyl]-4-(5,6,7,8-tetrahydronaphthalen-1-ylamino)-6,7,8,9-tetrahydro-5H-pyrimido[4,5-b]indole-6-carboxamide] | 1170 |
| COc1cc(Cl)c(Cl)cc1Nc1ncnc2[nH]c3c(c12)CC(C(=O)O)CC3 (racemic) [Example 18, (RS)-4-[(4,5-Dichloro-2-methoxyphenyl)amino]-6,7,8,9-tetrahydro-5H-pyrimido[4,5-b]indole-6-carboxylic acid] | 24 |
| CC(C)NC(=O)C1CCc2[nH]c3ncnc(Nc4ccccc4N4CCOCC4)c3c2C1 (racemic) [Example 202, (RS)-4-{[2-(Morpholin-4-yl)phenyl]amino}-N-(propan-2-yl)-6,7,8,9-tetrahydro-5H-pyrimido[4,5-b]indole-6-carboxamide] | 267 |
| CCNC(=O)C1CCc2[nH]c3ncnc(Nc4ccc5[nH]ncc5c4)c3c2C1 (racemic) [Example 7, (RS)—N-Ethyl-4-(1H-indazol-5-ylamino)-6,7,8,9-tetrahydro-5H-pyrimido[4,5-b]indole-6-carboxamide] | 20 |
| Nc1cc(F)c([N+](=O)[O-])cc1Nc1ncnc2[nH]c3c(c12)CCCC3 [Example 109] | ≥ 20000 |
| COCC1(OC)CCc2[nH]c3ncnc(Nc4cc5cn[nH]c5cc4OC(C)C)c3c2C1 (racemic) [Example 231, (RS)-6-Methoxy-6-(methoxymethyl)-N-[6-(propan-2-yloxy)-1H-indazol-5-yl]-6,7,8,9-tetrahydro-5H-pyrimido[4,5-b]indol-4-amine] | 50 |
| COc1cc(Nc2ncnc3[nH]c4c(c23)CC(C(=O)NCCCS(C)(=O)=O)CC4)ccc1F (racemic) [Example 34, (RS)-4-[(4-Fluoro-3-methoxyphenyl)amino]-N-[3-(methylsulfonyl)propyl]-6,7,8,9-tetrahydro-5H-pyrimido[4,5-b]indole-6-carboxamide] | 306 |
| O=c1[nH]c2ccc(Nc3ncnc4[nH]c5c(c34)CCCC5)cc2[nH]1 [Example 115] | 1790 |
| CC(C)Oc1ccc(Cl)cc1Nc1ncnc2[nH]c3c(c12)CC(F)(F)CC3 [Example 143] | 407 |
